This is an account of results in ChEMBL document CHEMBL1151400, “Plant antiviral agents. III. Isolation of alkaloids from Clivia miniata Regel (Amaryllidaceae)” (J Nat Prod, 1982).

Molecules are shown by their SMILES. Calls of active or inactive are those of the source. The rule behind the calls is not given here.

The test system of data set [1] is Simplexvirus. As to the kind of experiment: Antiviral activity against Herpes simplex virus infected african green monkey Vero cells assessed as reduction virus-induced cytopathic effect at 50 ug/mL after 96 hrs measured as viral titer per ml by microscopy. Format: functional. (In general: Cytopathic effects are the visible damage that an infection or toxin causes in cultured cells.)

Data set [2] has as its system Semliki Forest virus. Kind of data set: Antiviral activity against Semliki forest virus infected african green monkey Vero cells assessed as reduction in virus-induced cytopathic effect at 100 ug/mL after 96 hrs measured as viral titer per ml by microscopy. Format: functional.
Data set [3] deals with Semliki Forest virus. Kind of data set: Antiviral activity against Semliki forest virus infected african green monkey Vero cells assessed as reduction in virus-induced cytopathic effect at 50 ug/mL after 96 hrs measured as viral titer per ml by microscopy. Format: functional.
Data set [4] concerns Enterovirus C. As to the kind of experiment: Antiviral activity against Poliovirus infected african green monkey Vero cells assessed as reduction in virus-induced cytopathic effect at 100 ug/mL after 96 hrs measured as viral titer per ml by microscopy. It counts as functional.
Data set [5] concerns Enterovirus C. As to the kind of experiment: Antiviral activity against Poliovirus infected african green monkey Vero cells assessed as reduction in virus-induced cytopathic effect at 50 ug/mL after 96 hrs measured as viral titer per ml by microscopy. It counts as functional.
Data set [6] concerns Measles morbillivirus. Kind of data set: Antiviral activity against Measles virus infected african green monkey Vero cells assessed as reduction in virus-induced cytopathic effect at 100 ug/mL after 96 hrs measured as viral titer per ml by microscopy. Format: functional.
For data set [7], the system named is Measles morbillivirus. Kind of data set: Antiviral activity against Measles virus infected african green monkey Vero cells assessed as reduction in virus-induced cytopathic effect at 50 ug/mL after 96 hrs measured as viral titer per ml by microscopy. It counts as functional.
In data set [8] the test system is Simplexvirus. As to the kind of experiment: Antiviral activity against Herpes simplex virus infected african green monkey Vero cells assessed as reduction in virus-induced cytopathic effect at 100 ug/mL after 96 hrs measured as viral titer per ml by microscopy. Format: functional.
In data set [9] the test system is Simplexvirus. As to the kind of experiment: Antiviral activity against Herpes simplex virus infected african green monkey Vero cells assessed as reduction in virus-induced cytopathic effect at 20 ug/mL after 96 hrs measured as viral titer per ml by microscopy. Format: functional.
Data set [10] relates to Simplexvirus. Kind of data set: Antiviral activity against Herpes simplex virus infected african green monkey Vero cells assessed as reduction in virus-induced cytopathic effect at 10 ug/mL after 96 hrs measured as viral titer per ml by microscopy. It counts as functional.
The subject of data set [11] is Simplexvirus. Kind of data set: Antiviral activity against Herpes simplex virus infected african green monkey Vero cells assessed as reduction in virus-induced cytopathic effect at 5 ug/mL after 96 hrs measured as viral titer per ml by microscopy. It counts as functional.
Data set [12] concerns Simplexvirus. As to the kind of experiment: Antiviral activity against Herpes simplex virus infected african green monkey Vero cells assessed as reduction in virus-induced cytopathic effect at 2.5 ug/mL after 96 hrs measured as viral titer per ml by microscopy. It counts as functional.
For data set [13], the system named is Semliki Forest virus. As to the kind of experiment: Antiviral activity against Semliki forest virus infected african green monkey Vero cells assessed as reduction in virus-induced cytopathic effect at 20 ug/mL after 96 hrs measured as viral titer per ml by microscopy. It counts as functional.
In data set [14] the test system is Semliki Forest virus. As to the kind of experiment: Antiviral activity against Semliki forest virus infected african green monkey Vero cells assessed as reduction in virus-induced cytopathic effect at 10 ug/mL after 96 hrs measured as viral titer per ml by microscopy. Format: functional.
Data set [15] relates to Semliki Forest virus. As to the kind of experiment: Antiviral activity against Semliki forest virus infected african green monkey Vero cells assessed as reduction in virus-induced cytopathic effect at 5 ug/mL after 96 hrs measured as viral titer per ml by microscopy. Format: functional.
In data set [16] the test system is Semliki Forest virus. As to the kind of experiment: Antiviral activity against Semliki forest virus infected african green monkey Vero cells assessed as reduction in virus-induced cytopathic effect at 2.5 ug/mL after 96 hrs measured as viral titer per ml by microscopy. Format: functional.
The subject of data set [17] is Enterovirus C. As to the kind of experiment: Antiviral activity against Poliovirus infected african green monkey Vero cells assessed as reduction in virus-induced cytopathic effect at 20 ug/mL after 96 hrs measured as viral titer per ml by microscopy. Format: functional.
Data set [18] has as its system Enterovirus C. Kind of data set: Antiviral activity against Poliovirus infected african green monkey Vero cells assessed as reduction in virus-induced cytopathic effect at 10 ug/mL after 96 hrs measured as viral titer per ml by microscopy. It counts as functional.
The test system of data set [19] is Enterovirus C. As to the kind of experiment: Antiviral activity against Poliovirus infected african green monkey Vero cells assessed as reduction in virus-induced cytopathic effect at 5 ug/mL after 96 hrs measured as viral titer per ml by microscopy. Format: functional.
The test system of data set [20] is Enterovirus C. Kind of data set: Antiviral activity against Poliovirus infected african green monkey Vero cells assessed as reduction in virus-induced cytopathic effect at 2.5 ug/mL after 96 hrs measured as viral titer per ml by microscopy. Format: functional.
In data set [21] the test system is Measles morbillivirus. Kind of data set: Antiviral activity against Measles virus infected african green monkey Vero cells assessed as reduction in virus-induced cytopathic effect at 20 ug/mL after 96 hrs measured as viral titer per ml by microscopy. Format: functional.
Data set [22] relates to Measles morbillivirus. As to the kind of experiment: Antiviral activity against Measles virus infected african green monkey Vero cells assessed as reduction in virus-induced cytopathic effect at 10 ug/mL after 96 hrs measured as viral titer per ml by microscopy. Format: functional.
The test system of data set [23] is Measles morbillivirus. As to the kind of experiment: Antiviral activity against Measles virus infected african green monkey Vero cells assessed as reduction in virus-induced cytopathic effect at 5 ug/mL after 96 hrs measured as viral titer per ml by microscopy. Format: functional.
The subject of data set [24] is Measles morbillivirus. Kind of data set: Antiviral activity against Measles virus infected african green monkey Vero cells assessed as reduction in virus-induced cytopathic effect at 2.5 ug/mL after 96 hrs measured as viral titer per ml by microscopy. Format: functional.
For data set [25], the system named is Enterovirus C. Kind of data set: Antiviral activity against Poliovirus infected african green monkey Vero cells assessed as reduction of virus-induced cytopathic effect at 1 ug/mL after 96 hrs by microscopy. Format: functional, organism-based.
Data set [26] relates to Vero. As to the kind of experiment: Cytotoxicity against Poliovirus infected african green monkey Vero cells assessed as monolayer destruction at > 25 ug/mL. Format: cell-based. The note with it: chlorocebus sabaeus.
The test system of data set [27] is Vero. Kind of data set: Cytotoxicity against Herpes simplex virus infected african green monkey Vero cells assessed as monolayer destruction at 100 ug/mL. It counts as cell-based. Conditions: chlorocebus sabaeus.
The subject of data set [28] is Vero. As to the kind of experiment: Cytotoxicity against Semliki forest virus infected african green monkey Vero cells assessed as monolayer destruction at 100 ug/mL. Format: cell-based. Conditions: chlorocebus sabaeus.
In data set [29] the test system is Vero. Kind of data set: Cytotoxicity against Poliovirus infected african green monkey Vero cells assessed as monolayer destruction at 100 ug/mL. It counts as cell-based. The note with it: chlorocebus sabaeus.
For data set [30], the system named is Vero. As to the kind of experiment: Cytotoxicity against Measles virus infected african green monkey Vero cells assessed as monolayer destruction at 100 ug/mL. Format: cell-based. The note with it: chlorocebus sabaeus.
Data set [31] concerns Vero. As to the kind of experiment: Cytotoxicity against Herpes simplex virus infected african green monkey Vero cells assessed as monolayer destruction at 50 ug/mL. Format: cell-based. The note with it: chlorocebus sabaeus.
The test system of data set [32] is Vero. Kind of data set: Cytotoxicity against Semliki forest virus infected african green monkey Vero cells assessed as monolayer destruction at 50 ug/mL. The note with it: chlorocebus sabaeus. It counts as cell-based.
Data set [33] has as its system Vero. Kind of data set: Cytotoxicity against Poliovirus infected african green monkey Vero cells assessed as monolayer destruction at 50 ug/mL. Format: cell-based. Conditions: chlorocebus sabaeus.
Data set [34] has as its system Vero. As to the kind of experiment: Cytotoxicity against Measles virus infected african green monkey Vero cells assessed as monolayer destruction at 50 ug/mL. The note with it: chlorocebus sabaeus. It counts as cell-based.
Data set [35] concerns Vero. As to the kind of experiment: Cytotoxicity against african green monkey Vero cells assessed as monolayer destruction at 10 ug/mL after 24 hrs by trypan blue exclusion test. It counts as cell-based. The note with it: chlorocebus sabaeus.
The test system of data set [36] is Vero. As to the kind of experiment: Cytotoxicity against african green monkey Vero cells assessed as monolayer destruction at 25 ug/mL after 24 hrs by trypan blue exclusion test. Format: cell-based. Conditions: chlorocebus sabaeus.
The subject of data set [37] is Vero. As to the kind of experiment: Cytotoxicity against african green monkey Vero cells assessed as monolayer destruction at 50 ug/mL after 24 hrs by trypan blue exclusion test. Format: cell-based. The note with it: chlorocebus sabaeus.
The test system of data set [38] is Enterovirus C. As to the kind of experiment: Antiviral activity against Poliovirus infected african green monkey Vero cells assessed as reduction of virus-induced cytopathic effect at < 1 ug/mL after 4 days. It counts as functional, organism-based.
For data set [39], the system named is Enterovirus C. As to the kind of experiment: Antiviral activity against Poliovirus infected african green monkey Vero cells assessed as reduction of virus-induced cytopathic effect at 1 ug/mL after 4 days. It counts as functional, organism-based.
Data set [40] in a line: Therapeutic index, ratio of cytotoxicity against african green monkey Vero cells to antiviral activity against Poliovirus. It counts as cell-based. Conditions: read-out: TI.
In data set [41] the test system is Vero. As to the kind of experiment: Effect on african green monkey Vero cell growth assessed as doubling of cell generation at 1 ug/mL after 24 hrs by trypan blue exclusion test. Format: cell-based. Conditions: chlorocebus sabaeus.
The nature of data set [42]: Therapeutic index, ratio of cytotoxicity against african green monkey Vero cells to antiviral activity against Herpes simplex virus. Conditions: read-out: TI. Format: cell-based.
Data set [43] can be described thus: Therapeutic index, ratio of cytotoxicity against african green monkey Vero cells to antiviral activity against Semliki forest virus. Format: cell-based. Conditions: read-out: TI.
A short description of data set [44]: Therapeutic index, ratio of cytotoxicity against african green monkey Vero cells to antiviral activity against Measles virus. Conditions: read-out: TI. Format: cell-based.

Take `CCOC(=O)c1cc(C(=O)O[C@H]2C[C@H]3CCN(C)[C@H]3[C@@H]3c4cc5c(cc4C(=O)O[C@H]32)OCO5)c(C)nc1C` [CLIVIAMARTINE]: the pTCD50 is reported as 10 in data set [1]; 10 in data set [2]; 1 in data set [3]; 10 in data set [4]; 1 in data set [5]; 1 in [6]. Further, the values for the pTCD50 in data set [7] and in data set [8] were 1 and 10, respectively.

Take `Cc1nc(C)c(C(=O)O[C@H]2C[C@H]3CCN(C)[C@H]3[C@@H]3c4cc5c(cc4C(=O)O[C@H]32)OCO5)cc1C(=O)O[C@H]1C[C@H]2CCN(C)[C@H]2[C@@H]2c3cc4c(cc3C(=O)O[C@H]21)OCO4` [CLIVIMINE]: the pTCD50 was determined as 1 in [1]; 1 in data set [9]; 1 in data set [10]; 1 in data set [11]; 1 in data set [12]; 10 in [2]. For the same compound, the pTCD50 in data set [3] came to 1; in data set [13], 1; in data set [14], 1; in data set [15], 1; in [16] it was 1; in data set [4], 10. The pTCD50 in [5], in data set [17], in data set [18], in [19], in data set [20] and in [6] was 1 each time. The pTCD50 in [7], in data set [21], in data set [22], in data set [23], in [24] and in [8] was 1 each time.

On to `CN1CC[C@@H]2C[C@H](O)[C@@H]3OC(=O)c4cc5c(cc4[C@H]3[C@@H]21)OCO5` [CLIVONINE], for which the pTCD50 in data set [1] was determined as 1; in data set [2], 10; in data set [3], 1; in [4], 10; in [5], 1; in data set [6], 1. Also, the results for the pTCD50 in [7] and in data set [8] were 1 and 10, respectively.

As for `O[C@H]1[C@H]2c3cc4c(cc3CN3CCC(=C[C@@H]1O)[C@H]23)OCO4` [LYCORINE], the pTCD50 in data set [9] is 1000; in data set [10], 1000; in data set [11] it was 1000; in data set [12], 100; in data set [13] it was 10000; in data set [14] it was 1000. The pTCD50 in [15] was 1000; in data set [16], 100; in data set [17], 10000; in [18], 1000; in data set [19], 100; in [20], 100. Moreover, the pTCD50 in data set [21] turned out to be 1000; in data set [22], 1000; in [23] it was 100; in data set [24], 100. The outcome in data set [25] and in data set [39] was Active. Moreover, the Activity entry in [26], in data set [27], in [28], in [29], in data set [30] and in [31] was “Toxic” in each case. For the same compound, the Activity entry in data set [32] is on record as “Toxic”; in [33], “Toxic”; in [34], “Toxic”; in data set [35], “Non-toxic”; in data set [36] it was “Non-toxic”; in [37], “Toxic”. The result in [41] was Active. The outcome in data set [38] was inactive. For the same compound, the selectivity ratio in data set [40], in [42], in [43] and in data set [44] was 10 each time.
